Literature values in patent publication US20160030582A1 (MAYNE PHARMA INTERNATIONAL PTY. LTD., priority 2012, published 2016).
Where two headings read alike, the source gives them in different places.

Assays:
[1] = test system: typical infecting organisms for specific superficial and systemic mycoses; design: MIC90: unit not given here; conditions: for MIC RANGE: in µg/mL
[2] = Aspergillosis, A. flavus complex
[3] = Aspergillosis, A. fumigatus complex
[4] = Aspergillosis, A. nidulans complex
[5] = Aspergillosis, A. niger complex
[6] = Aspergillosis, A. terreus complex
[7] = tinea capitis, Microsporum sp. (audounti, canis, gypseum, ferrugineum et al.)
[8] = tinea capitis, Trichophyton sp. (tonsurans violaceum, soudanese, schoenleinii, mentagrophytes, verrucossum, et al.)
[9] = tinea corporis, Epidermophyton floccosum
[10] = tinea corporis, Microsporum sp. (canis, gypseum, et al.)
[11] = tinea corporis, Trichophyton sp. (rubrum, tonsurans interdigitale, mentagrophytes, concentricim, violaceum et al.)
[12] = tinea cruris, Epidermophyton floccosum
[13] = tinea cruris, Microsporum sp. (canis, et al.)
[14] = tinea cruris, Trichophyton sp. (rubrum, tonsurans interdigitale, mentagrophytes, et al.)
[15] = tinea manuum, Epidermophyton floccosum
[16] = tinea manuum, Trichophyton sp. (rubrum, interdigitale, mentagrophytes.)
[17] = tinea pedis, Epidermophyton floccosum
[18] = tinea pedis, Microsporum sp. (canis, gypseum, et al.)
[19] = tinea pedis, Trichophyton sp. (rubrum, tonsurans interdigitale, mentagrophytes, et al.)
[20] = tinea unguium, Epidermophyton floccosum
[21] = tinea unguium, Microsporum sp. (canis, et al.)
[22] = tinea unguium, Trichophyton sp. (rubrum, tonsurans interdigitale, mentagrophytes, et al.)

## CCC(C)n1ncn(-c2ccc(N3CCN(c4ccc(OCC5COC(Cn6cncn6)(c6ccc(Cl)cc6Cl)O5)cc4)CC3)cc2)c1=O (centres unmarked) [itraconazole]
[1]
  MIC90: MIC90 = 0.06
  MIC RANGE: 0.03-8
[1]; [2]
  MIC90: MIC90 = 0.5
  MIC RANGE: 0.03-8
[1]; [3]
  MIC90: MIC90 = 0.5
  MIC RANGE: 0.03-16
[1]; [4]
  MIC90: MIC90 = 0.25
  MIC RANGE: 0.03-8
[1]; [5]
  MIC90: MIC90 = 0.5
  MIC RANGE: 0.03-8
[1]; [6]
  MIC90: MIC90 = 0.25
  MIC RANGE: 0.03-1
[1]; Candidiasis, C. albicans
  MIC90: MIC90 = 0.125
  MIC RANGE: 0.008-8
[1]; Candidiasis, C. glabrata
  MIC RANGE: 0.008-16
[1]; Candidiasis, C. kruset
  MIC RANGE: 0.008-8
[1]; Candidiasis, C. tropicalis
  MIC RANGE: 0.03-8
[1]; Pityriasis versicolor, Malassezia sp. (florfur, globosa, obtuse, sympodialis etc).
  MIC RANGE: 0.3-16
[1]; [7]
  MIC90: MIC90 = 0.25-0.5
  MIC RANGE: 0.01-4
[1]; [8]
  MIC90: MIC90 = 0.25-0.5
  MIC RANGE: 0.01-8
[1]; [9]
  MIC90: MIC90 = 0.125
  MIC RANGE: 0.01-8
[1]; [10]
  MIC90: MIC90 = 0.25-0.5
  MIC RANGE: 0.01-4
[1]; [11]
  MIC90: MIC90 = 0.25-0.5
  MIC RANGE: 0.01-8
[1]; [12]
  MIC90: MIC90 = 0.125
  MIC RANGE: 0.01-8
[1]; [13]
  MIC90: MIC90 = 0.25-0.5
  MIC RANGE: 0.01-4
[1]; [14]
  MIC90: MIC90 = 0.25-0.5
  MIC RANGE: 0.01-8
[1]; [15]
  MIC90: MIC90 = 0.125
  MIC RANGE: 0.01-8
[1]; [16]
  MIC90: MIC90 = 0.25-0.5
  MIC RANGE: 0.01-8
[1]; [17]
  MIC90: MIC90 = 0.125
  MIC RANGE: 0.01-8
[1]; [18]
  MIC90: MIC90 = 0.25-0.5
  MIC RANGE: 0.01-4
[1]; [19]
  MIC90: MIC90 = 0.25-0.5
  MIC RANGE: 0.01-8
[1]; [20]
  MIC90: MIC90 = 0.125
  MIC RANGE: 0.01-8
[1]; [21]
  MIC90: MIC90 = 0.25-0.5
  MIC RANGE: 0.01-4
[1]; [22]
  MIC90: MIC90 = 0.25-0.5
  MIC RANGE: 0.01-8
Basis for sampling schedule of Example 12
  expected apparent plasma terminal elimination half-life (t½): 22 h
Compared to administration after a light meal
  reduction of Cmax and AUC in the fasting state: 50-70%
Oral dose
  excreted unchanged in the feces: 3-18%
